Reference: ChEMBL document CHEMBL1137593, “Identification and optimisation of a series of substituted 5-pyridin-2-yl-thiophene-2-hydroxamic acids as potent histone deacetylase (HDAC) inhibitors” (Bioorg Med Chem Lett, 2007)

What follows are molecules tested on HCT-116 (assay: cells). Details: Homo sapiens.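 Note: inhibition of HCT116 cell growth as proliferation read-out, each value averaged over two experiments.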
Type: functional, cell-based
Description: Inhibition of HCT116 cell proliferation (mean of two experiments)

Compound | IC50
O=C(NO)c1ccc(-c2ccc(CNCCc3ccc(F)cc3)cn2)s1 | 100 nM
Cc1cccc(CCNCc2ccc(-c3ccc(C(=O)NO)s3)nc2)c1 | 90 nM
Cc1ccc(CCNCc2ccc(-c3ccc(C(=O)NO)s3)nc2)cc1 | 60 nM
O=C(NO)c1ccc(-c2ccc(CCNCc3ccc(F)cc3)cn2)s1 | 140 nM

Continued, values first:

IC50 | Compound
70 nM | Cc1ccccc1CCNCc1ccc(-c2ccc(C(=O)NO)s2)nc1
80 nM | O=C(NO)c1ccc(-c2ccc(CNCCc3ccccc3Cl)cn2)s1
120 nM | O=C(NO)c1ccc(-c2ccc(CNCCc3cccc4occc34)cn2)s1
180 nM | O=C(NO)c1ccc(-c2ccc(CNCc3ccc(-c4ccccc4)cc3)cn2)s1

Each molecule was assayed on MDA-MB-231 (assay: cells). Details: Homo sapiens.
Type: functional, cell-based
Description: Inhibition of MDA-MB-231 cell proliferation (mean of two experiments)

IC50 | Compound
170 nM | O=C(NO)c1ccc(-c2ccc(CNCc3ccccc3Cl)cn2)s1

What follows are molecules tested against Histone deacetylase 1 (Homo sapiens, UniProt Q13547) (assay: Inhibition of HDAC activity measured by HDAC Fluorescent Activity Assay (mean of two experiments)). Details: not given.
Histone deacetylase 1, sequence (Q13547 whole entry): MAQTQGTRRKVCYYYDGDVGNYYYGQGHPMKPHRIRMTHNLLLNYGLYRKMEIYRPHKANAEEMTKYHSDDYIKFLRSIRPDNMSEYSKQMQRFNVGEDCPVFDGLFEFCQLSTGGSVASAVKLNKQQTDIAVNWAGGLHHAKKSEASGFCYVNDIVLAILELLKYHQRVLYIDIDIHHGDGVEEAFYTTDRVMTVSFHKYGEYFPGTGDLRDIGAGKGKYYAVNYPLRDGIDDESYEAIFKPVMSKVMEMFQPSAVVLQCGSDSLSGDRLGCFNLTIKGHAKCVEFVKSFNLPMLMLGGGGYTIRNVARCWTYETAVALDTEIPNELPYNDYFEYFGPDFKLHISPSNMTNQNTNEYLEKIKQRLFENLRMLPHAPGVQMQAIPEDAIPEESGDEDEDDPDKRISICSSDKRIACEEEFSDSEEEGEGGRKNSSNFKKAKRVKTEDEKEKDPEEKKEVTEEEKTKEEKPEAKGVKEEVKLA
Type: functional

Compound | IC50
O=C(NO)c1ccc(-c2ccc(CNCCc3ccc(F)cc3)cn2)s1 | 9 nM
Cc1cccc(CCNCc2ccc(-c3ccc(C(=O)NO)s3)nc2)c1 | 9 nM
Cc1ccc(CCNCc2ccc(-c3ccc(C(=O)NO)s3)nc2)cc1 | 14 nM
O=C(NO)c1ccc(-c2ccc(CCNCc3ccc(F)cc3)cn2)s1 | 13 nM

These reach a lower IC50. Values come first.

IC50 | Compound
7 nM | O=C(NO)c1ccc(-c2ccc(CNCc3ccccc3Cl)cn2)s1
8 nM | Cc1ccccc1CCNCc1ccc(-c2ccc(C(=O)NO)s2)nc1
6 nM | O=C(NO)c1ccc(-c2ccc(CNCCc3ccccc3Cl)cn2)s1
4 nM | O=C(NO)c1ccc(-c2ccc(CNCCc3cccc4occc34)cn2)s1
7 nM | O=C(NO)c1ccc(-c2ccc(CNCc3ccc(-c4ccccc4)cc3)cn2)s1

The molecules below were run on MCF7 (assay: Inhibition of MCF7 cell proliferation (mean of two experiments)). Details: Homo sapiens.
Type: functional, cell-based

Compound | IC50
O=C(NO)c1ccc(-c2ccc(CNCCc3ccc(F)cc3)cn2)s1 | 80 nM
Cc1cccc(CCNCc2ccc(-c3ccc(C(=O)NO)s3)nc2)c1 | 60 nM
Cc1ccc(CCNCc2ccc(-c3ccc(C(=O)NO)s3)nc2)cc1 | 60 nM
O=C(NO)c1ccc(-c2ccc(CCNCc3ccc(F)cc3)cn2)s1 | 90 nM

Further lines, results first:

IC50 | Compound
110 nM | O=C(NO)c1ccc(-c2ccc(CNCc3ccccc3Cl)cn2)s1
90 nM | Cc1ccccc1CCNCc1ccc(-c2ccc(C(=O)NO)s2)nc1
80 nM | O=C(NO)c1ccc(-c2ccc(CNCCc3ccccc3Cl)cn2)s1
60 nM | O=C(NO)c1ccc(-c2ccc(CNCCc3cccc4occc34)cn2)s1
150 nM | O=C(NO)c1ccc(-c2ccc(CNCc3ccc(-c4ccccc4)cc3)cn2)s1
